SMILES strings stand for the structures.

The target in one series is T1, Androgen receptor (AR) (Homo sapiens, UniProt P10275, T878A).
T1 construct: 5.5×10^5 LNCap cells were injected into each well of a 6-well plate; endogenous in cells; host or cells: LNCaP
T1 sequence (P10275 1-920 T878A): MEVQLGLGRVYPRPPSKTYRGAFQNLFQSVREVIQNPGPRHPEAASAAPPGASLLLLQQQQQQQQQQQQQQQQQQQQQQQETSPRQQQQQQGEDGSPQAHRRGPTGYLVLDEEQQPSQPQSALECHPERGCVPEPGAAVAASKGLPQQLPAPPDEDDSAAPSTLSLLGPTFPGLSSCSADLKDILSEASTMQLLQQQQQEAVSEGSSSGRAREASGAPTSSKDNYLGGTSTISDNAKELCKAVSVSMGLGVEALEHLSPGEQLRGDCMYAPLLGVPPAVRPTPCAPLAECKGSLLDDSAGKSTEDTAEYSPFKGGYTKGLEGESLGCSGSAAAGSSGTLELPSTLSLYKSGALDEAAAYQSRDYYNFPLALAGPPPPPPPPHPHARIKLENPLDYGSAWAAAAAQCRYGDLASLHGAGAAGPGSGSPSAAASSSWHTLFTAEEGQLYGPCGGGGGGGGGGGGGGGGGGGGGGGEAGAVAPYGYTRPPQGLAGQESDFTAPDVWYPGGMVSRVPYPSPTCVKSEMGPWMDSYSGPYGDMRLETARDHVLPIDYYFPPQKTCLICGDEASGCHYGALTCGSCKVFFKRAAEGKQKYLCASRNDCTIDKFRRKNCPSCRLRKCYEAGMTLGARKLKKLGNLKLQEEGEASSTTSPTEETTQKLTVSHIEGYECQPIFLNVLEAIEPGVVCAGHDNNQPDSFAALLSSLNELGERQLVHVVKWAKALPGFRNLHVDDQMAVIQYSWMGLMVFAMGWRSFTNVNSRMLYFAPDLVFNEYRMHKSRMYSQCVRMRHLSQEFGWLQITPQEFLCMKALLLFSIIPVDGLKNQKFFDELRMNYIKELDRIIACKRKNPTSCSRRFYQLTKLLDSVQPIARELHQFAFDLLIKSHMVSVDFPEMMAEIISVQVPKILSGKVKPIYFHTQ
Nature of the series: Assessment of AR proteolytic activity (Western blotting of LNCap cell lysates). Type of series: cell-based. The settings on record: 24 hours of treatment, Western blotting quantified with Image J. An outline of the steps:
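AR degradation read by Western blot densitometry on RIPA lysates (pH 7.5, protease inhibitor cocktail). Lysates came from LNCap cells, 5.5×10^5 per well, exposed to compound for 24 hours.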
(In general: In western blotting, separated proteins are transferred to a membrane and probed.)

Description for VCaP cells: In order to evaluate the androgen receptor (AR) cytotoxicity of the compounds according to the present invention, the following experiment was conducted. Specifically, 1.5×10^3 (LNCaP) or 4×10^3 (VCaP, 22RV1), respectively, of LNCaP, VCaP, and 22RV1 cells were injected into each well of a 96-well plate. The next day, each well was treated with the compound at a final concentration of 3 nM, 10 nM, 30 nM, 100 nM, 300 nM, 1 μM, 3 μM, and 10 μM. […] After 6 days of treatment, Cell-titer-glo (promega) was treated and reacted for 10 minutes, and cell viability was measured with a multimode plate reader (PerkinElmer, Inc.), and the change was quantified compared to when DMSO was treated.

Broadly, the CC50 is the concentration giving 50% cytotoxicity. Read a low CC50 as harm at low concentration. On to `CC1(C)C(NC(=O)c2ccc(N3CCN(CCCOC4CCN(c5ccc6nnn(C7CCC(=O)NC7=O)c(=O)c6c5)CC4)CC3)cc2)C(C)(C)C1Oc1ccc(C#N)c(Cl)c1` (centres unmarked) [Example 39, N-((1r,3r)-3-(3-chloro-4-cyanophenoxy)-2,2,4,4-tetramethylcyclobutyl)-4-(4-(3-((1-(3-(2,6-dioxopiperidin-3-yl)-4-oxo-3,4-dihydrobenzo[d][1,2,3]triazin-6-yl)piperidin-4-yl)oxy)propyl)piperazin-1-yl)benzamide], for which, at Androgen receptor (AR), the “Degradation (1 μM treated in LNCaP, % AR remaining)” value was found to be 2.1%. This compound showed a CC50 in the series on VCaP cells of 0.0866 µM.

As for `CC1(C)C(NC(=O)c2ccc(N3CCN(C(=O)COc4ccc5nnn(C6CCC(=O)NC6=O)c(=O)c5c4)CC3)cc2)C(C)(C)C1Oc1ccc(C#N)c(Cl)c1` (centres unmarked) [Example 41, N-((1r,3r)-3-(3-chloro-4-cyanophenoxy)-2,2,4,4-tetramethylcyclobutyl)-4-(4-(2-((3-(2,6-dioxopiperidin-3-yl)-4-oxo-3,4-dihydrobenzo[d][1,2,3]triazin-6-yl)oxy)acetyl)piperazin-1-yl)benzamide], on Androgen receptor (AR), the “Degradation (1 μM treated in LNCaP, % AR remaining)” value came out at 12.3%. Further, the CC50 with VCaP cells was determined as 0.02 µM.

Consider `CC1(C)C(NC(=O)c2ccc(N3CCN(C(=O)C4CN(c5ccc6nnn(C7CCC(=O)NC7=O)c(=O)c6c5)C4)CC3)cc2)C(C)(C)C1Oc1ccc(C#N)c(Cl)c1` (centres unmarked) [Example 43, N-((1r,3r)-3-(3-chloro-4-cyanophenoxy)-2,2,4,4-tetramethylcyclobutyl)-4-(4-(1-(3-(2,6-dioxopiperidin-3-yl)-4-oxo-3,4-dihydrobenzo[d][1,2,3]triazin-6-yl)azetidine-3-carbonyl)piperazin-1-yl)benzamide], for which, on Androgen receptor (AR), the “Degradation (1 μM treated in LNCaP, % AR remaining)” value came out at 33.6%. For the same compound, in the series on VCaP cells, the CC50 came to 0.0373 µM.

Regarding `CC1(C)C(NC(=O)c2ccc(N3CCN(CCCC4CCN(C(=O)COc5ccc6nnn(C7CCC(=O)NC7=O)c(=O)c6c5)CC4)CC3)cc2)C(C)(C)C1Oc1ccc(C#N)c(Cl)c1` (centres unmarked) [Example 45, N-((1r,3r)-3-(3-chloro-4-cyanophenoxy)-2,2,4,4-tetramethylcyclobutyl)-4-(4-(3-(1-(2-((3-(2,6-dioxopiperidin-3-yl)-4-oxo-3,4-dihydrobenzo[d][1,2,3]triazin-6-yl)oxy)acetyl)piperidin-4-yl)propyl)piperazin-1-yl)benzamide], on Androgen receptor (AR), the “Degradation (1 μM treated in LNCaP, % AR remaining)” value is on record as 21.1%. In the series on VCaP cells, the CC50 was determined as 0.0466 µM.

`CC1(C)[C@H](NC(=O)c2ccc(N3CCN(CCCC4CCN(c5ccc6nnn(C7CCC(=O)NC7=O)c(=O)c6c5)CC4)CC3)cc2)C(C)(C)[C@H]1Oc1ccc(C#N)c(Cl)c1` (some centres unmarked) [Example 48, N-((1r,3r)-3-(3-chloro-4-cyanophenoxy)-2,2,4,4-tetramethylcyclobutyl)-4-(4-(3-(1-(3-(2,6-dioxopiperidin-3-yl)-4-oxo-3,4-dihydrobenzo[d][1,2,3]triazin-6-yl)piperidin-4-yl)propyl)piperazin-1-yl)benzamide]: the “Degradation (1 μM treated in LNCaP, % AR remaining)” value on Androgen receptor (AR) came out at 35.2%. Besides, in the series with VCaP cells, the midpoint of cytotoxicity, the CC50, lay at 0.077 µM.

As to `CC1(C)C(NC(=O)c2ccc(N3CCN(CC4(O)CCN(C(=O)CNc5ccc6nnn(C7CCC(=O)NC7=O)c(=O)c6c5)CC4)CC3)cc2)C(C)(C)C1Oc1ccc(C#N)c(Cl)c1` (centres unmarked) [Example 53, N-((1r,3r)-3-(3-chloro-4-cyanophenoxy)-2,2,4,4-tetramethylcyclobutyl)-4-(4-((1-((3-(2,6-dioxopiperidin-3-yl)-4-oxo-3,4-dihydrobenzo[d][1,2,3]triazin-6-yl)glycyl)-4-hydroxypiperidin-4-yl)methyl)piperazin-1-yl)benzamide], the “Degradation (1 μM treated in LNCaP, % AR remaining)” value at Androgen receptor (AR) was determined as 5.8%. Also, the midpoint of cytotoxicity in the series on VCaP cells, the CC50, lay at 0.0197 µM.

Turning to `CC1(C)[C@H](NC(=O)c2ccc(N3CCN(CC4(O)CCN(C(=O)COc5ccc6nnn(C7CCC(=O)NC7=O)c(=O)c6c5)CC4)CC3)cc2)C(C)(C)[C@H]1Oc1ccc(C#N)c(Cl)c1` (some centres unmarked) [Example 54, N-((1r,3r)-3-(3-chloro-4-cyanophenoxy)-2,2,4,4-tetramethylcyclobutyl)-4-(4-((1-(2-((3-(2,6-dioxopiperidin-3-yl)-4-oxo-3,4-dihydrobenzo[d][1,2,3]triazin-6-yl)oxy)acetyl)-4-hydroxypiperidin-4-yl)methyl)piperazin-1-yl)benzamide], the “Degradation (1 μM treated in LNCaP, % AR remaining)” value on Androgen receptor (AR) is given as 7.7%. In the series with VCaP cells, this compound had a CC50 of 0.553 µM.

As for `CC1(C)C(NC(=O)c2ccc(N3CCN(CC4(O)CCN(C(=O)C5CN(c6ccc7nnn(C8CCC(=O)NC8=O)c(=O)c7c6)C5)CC4)CC3)cc2)C(C)(C)C1Oc1ccc(C#N)c(Cl)c1` (centres unmarked) [Example 56, N-((1r,3r)-3-(3-chloro-4-cyanophenoxy)-2,2,4,4-tetramethylcyclobutyl)-4-(4-((1-(1-(3-(2,6-dioxopiperidin-3-yl)-4-oxo-3,4-dihydrobenzo[d][1,2,3]triazin-6-yl)azetidine-3-carbonyl)-4-hydroxypiperidin-4-yl)methyl)piperazin-1-yl)benzamide], the “Degradation (1 μM treated in LNCaP, % AR remaining)” value at Androgen receptor (AR) amounted to 21.3%. Further, the half-maximal cytotoxic concentration (CC50) in the series on VCaP cells came out at 0.0361 µM.

Consider `CC1(C)C(NC(=O)c2ccc(N3CCN(C(=O)CN4CCN(c5ccc6nnn(C7CCC(=O)NC7=O)c(=O)c6c5)CC4)CC3)cc2)C(C)(C)C1Oc1ccc(C#N)c(Cl)c1` (centres unmarked) [Example 57, N-((1r,3r)-3-(3-chloro-4-cyanophenoxy)-2,2,4,4-tetramethylcyclobutyl)-4-(4-(2-(4-(3-(2,6-dioxopiperidin-3-yl)-4-oxo-3,4-dihydrobenzo[d][1,2,3]triazin-6-yl)piperazin-1-yl)acetyl)piperazin-1-yl)benzamide], for which the “Degradation (1 μM treated in LNCaP, % AR remaining)” value at Androgen receptor (AR) turned out to be 13.3%. In the series on VCaP cells, this compound displayed a CC50 of 0.225 µM.

For the compound `CC1(C)C(NC(=O)c2ccc(N3CCN(CC4CCN(C(=O)CN5CCN(c6ccc7nnn(C8CCC(=O)NC8=O)c(=O)c7c6)CC5)CC4)CC3)cc2)C(C)(C)C1Oc1ccc(C#N)c(Cl)c1` (centres unmarked) [Example 58, N-((1r,3r)-3-(3-chloro-4-cyanophenoxy)-2,2,4,4-tetramethylcyclobutyl)-4-(4-((1-(2-(4-(3-(2,6-dioxopiperidin-3-yl)-4-oxo-3,4-dihydrobenzo[d][1,2,3]triazin-6-yl)piperazin-1-yl)acetyl)piperidin-4-yl)methyl)piperazin-1-yl)benzamide], the “Degradation (1 μM treated in LNCaP, % AR remaining)” value on Androgen receptor (AR) is 11.4%. In the series on VCaP cells, this compound had a CC50 of 0.33 µM.

As for `CC1(C)C(NC(=O)c2ccc(N3CCN(CC4CCN(CCNC(=O)COc5ccc6nnn(C7CCC(=O)NC7=O)c(=O)c6c5)CC4)CC3)cc2)C(C)(C)C1Oc1ccc(C#N)c(Cl)c1` (centres unmarked) [Example 60, N-((1r,3r)-3-(3-chloro-4-cyanophenoxy)-2,2,4,4-tetramethylcyclobutyl)-4-(4-((1-(2-(2-((3-(2,6-dioxopiperidin-3-yl)-4-oxo-3,4-dihydrobenzo[d][1,2,3]triazin-6-yl)oxy)acetamido)ethyl)piperidin-4-yl)methyl)piperazin-1-yl)benzamide], the “Degradation (1 μM treated in LNCaP, % AR remaining)” value at Androgen receptor (AR) is 20.3%. Moreover, it took 3.28 µM to reach half-maximal cytotoxicity in the series with VCaP cells (CC50).

Consider `CC1(C)C(NC(=O)c2ccc(N3CCN(C=C4CCN(c5ccc6nnn(C7CCC(=O)NC7=O)c(=O)c6c5)CC4)CC3)cc2)C(C)(C)C1Oc1ccc(C#N)c(Cl)c1` (centres unmarked) [Example 64, N-((1r,3r)-3-(3-chloro-4-cyanophenoxy)-2,2,4,4-tetramethylcyclobutyl)-4-(4-((1-(3-(2,6-dioxopiperidin-3-yl)-4-oxo-3,4-dihydrobenzo[d][1,2,3]triazin-6-yl)piperidin-4-ylidene)methyl)piperazin-1-yl)benzamide], for which the “Degradation (1 μM treated in LNCaP, % AR remaining)” value at Androgen receptor (AR) amounted to 56%. Half-maximal cytotoxicity in the series with VCaP cells (CC50) was put at 0.0762 µM.

Regarding `CC1(C)C(NC(=O)c2ccc(N3CCN(C=C4CCN(C(=O)C5CN(c6ccc7nnn(C8CCC(=O)NC8=O)c(=O)c7c6)C5)CC4)CC3)cc2)C(C)(C)C1Oc1ccc(C#N)c(Cl)c1` (centres unmarked) [Example 66, N-((1r,3r)-3-(3-chloro-4-cyanophenoxy)-2,2,4,4-tetramethylcyclobutyl)-4-(4-((1-(1-(3-(2,6-dioxopiperidin-3-yl)-4-oxo-3,4-dihydrobenzo[d][1,2,3]triazin-6-yl)azetidine-3-carbonyl)piperidin-4-ylidene)methyl)piperazin-1-yl)benzamide], the “Degradation (1 μM treated in LNCaP, % AR remaining)” value on Androgen receptor (AR) amounted to 35%. This compound also displayed a CC50 with VCaP cells of 0.0182 µM.

Values taken from patent publication US20240018123A1, “COMPOUND FOR INHIBITING OR DISINTEGRATING ANDROGEN RECEPTOR, AND PHARMACEUTICAL USE THEREOF” (KOREA RESEARCH INSTITUTE OF CHEMICAL TECHNOLOGY, priority 2020, published 2024).
